# Source: US20260262643A1, “HERBICIDAL BENZOXAZINES” (FMC CORPORATION, priority 2022, published 2026)
# Assays:
# wheat [1] = assay: Test C preemergence; assay type: in vivo, Triticum aestivum; settings: preemergence, 0 to 100 scale (0 no effect, 100 complete control)
# Summary of the method: (§1)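 Greenhouse herbicide screen, 10-day duration. Test chemicals in solvent/surfactant blend were sprayed onto soil at sowing (pre) or onto 2–10 cm seedlings at one to two leaves (post); injury scored visually against controls, 0 no effect to 100 complete control.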
# green foxtail [2] = assay: Test C postemergence; assay type: in vivo, Setaria viridis; settings: 10 days
# Summary of the method: as §1
# corn [3] = assay: Test C postemergence; assay type: in vivo, Zea mays; settings: 10 days
# Summary of the method: as §1
# horseweed = assay: Test C postemergence; assay type: in vivo, Erigeron canadensis; settings: 10 days
# Summary of the method: as §1
# oat, wild [4] = assay: Test C preemergence; assay type: in vivo, Avena fatua; settings: preemergence, 0 to 100 scale (0 no effect, 100 complete control)
# Summary of the method: as §1
# green foxtail [5] = assay: Test C preemergence; assay type: in vivo, Setaria viridis; settings: preemergence, 0 to 100 scale (0 no effect, 100 complete control)
# Summary of the method: as §1
# corn [6] = assay: Test C preemergence; assay type: in vivo, Zea mays; settings: preemergence, 0 to 100 scale (0 no effect, 100 complete control)
# Summary of the method: as §1
# ducksalad = assay: Test D flooded paddy test; assay type: in vivo, Heteranthera limosa; settings: 250 g ai/ha, applied to paddy water, visual rating after 13 to 14 days, scale 0 to 100 (0 no effect, 100 complete control)
# Summary of the method: (§2)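 Plants grown to the 2-leaf stage; pots flooded to 3 cm above soil at treatment and held at that depth throughout. Test compounds applied directly to the paddy water. After 13 to 14 days in a greenhouse, response was rated visually versus controls on a 0 (no effect) to 100 (complete control) scale.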
# barnyardgrass [7] = assay: Test C postemergence; assay type: in vivo, Echinochloa crusgalli; settings: 10 days
# Summary of the method: as §1
# oat, wild [8] = assay: Test C postemergence; assay type: in vivo, Avena fatua; settings: 125 g ai/ha, postemergence, 10 days; 0 to 100 scale, 0 no effect, 100 complete control
# Summary of the method: as §1
# wheat [9] = assay: Test C postemergence; assay type: in vivo, Triticum aestivum; settings: 125 g ai/ha, postemergence, 10 days; 0 to 100 scale, 0 no effect, 100 complete control
# Summary of the method: as §1
# blackgrass [10] = assay: Test C postemergence; assay type: in vivo, Alopecurus myosuroides; settings: 10 days
# Summary of the method: as §1
# soybean [11] = assay: Test C postemergence; assay type: in vivo, Glycine max; settings: 125 g ai/ha, postemergence, 10 days; 0 to 100 scale, 0 no effect, 100 complete control
# Summary of the method: as §1
# ragweed [12] = assay: Test C preemergence; assay type: in vivo, Ambrosia artemisiifolia; settings: preemergence, 0 to 100 scale (0 no effect, 100 complete control)
# Summary of the method: as §1
# soybean [13] = assay: Test C preemergence; assay type: in vivo, Glycine max; settings: preemergence, 0 to 100 scale (0 no effect, 100 complete control)
# Summary of the method: as §1
# ragweed [14] = assay: Test C postemergence; assay type: in vivo, Ambrosia artemisiifolia; settings: 125 g ai/ha, postemergence, 10 days; 0 to 100 scale, 0 no effect, 100 complete control
# Summary of the method: as §1
# barnyardgrass [15] = assay: Test C preemergence; assay type: in vivo, Echinochloa crusgalli; settings: 0 to 100 scale (0 no effect, 100 complete control)
# Summary of the method: as §1
# kochia [16] = assay: Test C preemergence; assay type: in vivo, Bassia scoparia; settings: preemergence, 0 to 100 scale (0 no effect, 100 complete control)
# Summary of the method: as §1
# galium = assay: Test C postemergence; assay type: in vivo, Galium aparine; settings: 10 days
# Summary of the method: as §1
# rice = assay: Test D flooded paddy test; assay type: in vivo, Oryza sativa; settings: 250 g ai/ha, applied to paddy water, visual rating after 13 to 14 days, scale 0 to 100 (0 no effect, 100 complete control)
# Summary of the method: as §2
# barnyardgrass [17] = assay: Test D flooded paddy test; assay type: in vivo, Echinochloa crus-galli; settings: 250 g ai/ha, applied to paddy water, visual rating after 13 to 14 days, scale 0 to 100 (0 no effect, 100 complete control)
# Summary of the method: as §2
# ryegrass, Italian [18] = assay: Test C preemergence; assay type: in vivo, Lolium multiflorum; settings: preemergence, 0 to 100 scale (0 no effect, 100 complete control)
# Summary of the method: as §1
# sedge, umbrella = assay: Test D flooded paddy test; assay type: in vivo, Cyperus difformis; settings: 250 g ai/ha, applied to paddy water, visual rating after 13 to 14 days, scale 0 to 100 (0 no effect, 100 complete control)
# Summary of the method: as §2
# ryegrass, Italian [19] = assay: Test C postemergence; assay type: in vivo, Lolium multiflorum; settings: 125 g ai/ha, postemergence, 10 days; 0 to 100 scale, 0 no effect, 100 complete control
# Summary of the method: as §1
# pigweed, palmer [20] = assay: Test C preemergence; assay type: in vivo, Amaranthus palmeri; settings: preemergence, 0 to 100 scale (0 no effect, 100 complete control)
# Summary of the method: as §1
# pigweed, palmer [21] = assay: Test C postemergence; assay type: in vivo, Amaranthus palmeri; settings: 125 g ai/ha, postemergence, 10 days; 0 to 100 scale, 0 no effect, 100 complete control
# Summary of the method: as §1
# kochia [22] = assay: Test C postemergence; assay type: in vivo, Bassia scoparia; settings: 125 g ai/ha, postemergence, 10 days; 0 to 100 scale, 0 no effect, 100 complete control
# Summary of the method: as §1
# blackgrass [23] = assay: Test C preemergence; assay type: in vivo, Alopecurus myosuroides; settings: 0 to 100 scale (0 no effect, 100 complete control)
# Summary of the method: as §1
# [24] = 125 g ai/ha, postemergence, 0 to 100 scale, 0 no effect, 100 complete control
# [25] = Postemergence, 500 g ai/ha, visual 0 to 100 scale (0 no effect, 100 complete control)
# [26] = Preemergence, 500 g ai/ha, visual rating after 10 days
# [27] = Test C, preemergence, 125 g ai/ha
compound,measurement,setting,value
CCc1ccc(-n2cnc(C(C)(C)O)n2)cc1C(=O)N1C[C@H](C)Oc2c(Cl)cccc21 [Compound 277],Wheat plant response rating,wheat [1]; 500 g ai/ha,80
same,Wheat plant response rating,"wheat [1]; Test C, 125 g ai/ha",50
same,"Plant response rating, Foxtail, Green",green foxtail [2]; [24],90
same,"Plant response rating, Foxtail, Green",green foxtail [2]; [25],90
same,"Plant response rating, Corn",corn [3]; [24],90
same,"Plant response rating, Corn",corn [3]; [25],100
same,"Plant response rating, Horseweed",horseweed; [24],0
same,"Plant response rating, Horseweed",horseweed; [25],30
same,"Oat, Wild plant response rating","oat, wild [4]; 500 g ai/ha",90
same,"Oat, Wild plant response rating","oat, wild [4]; Test C, 125 g ai/ha",80
same,"Foxtail, Green plant response rating",green foxtail [5]; 500 g ai/ha,100
same,"Foxtail, Green plant response rating","green foxtail [5]; Test C, 125 g ai/ha",100
same,Corn plant response rating,corn [6]; 500 g ai/ha,80
same,Corn plant response rating,"corn [6]; Test C, 125 g ai/ha",50
same,"Plant response rating, Ducksalad (Flood)",ducksalad,40
same,"Plant response rating, Barnyardgrass",barnyardgrass [7]; [24],100
same,"Plant response rating, Barnyardgrass",barnyardgrass [7]; [25],100
same,"Plant response rating, Oat, Wild","oat, wild [8]",80
same,"Plant response rating, Wheat",wheat [9],50
same,"Plant response rating, Blackgrass",blackgrass [10]; [24],80
same,"Plant response rating, Blackgrass",blackgrass [10]; [25],90
same,"Plant response rating, Soybean",soybean [11],100
same,Ragweed plant response rating,ragweed [12]; 500 g ai/ha,70
same,Ragweed plant response rating,"ragweed [12]; Test C, 125 g ai/ha",30
same,Soybean plant response rating,soybean [13]; 500 g ai/ha,100
same,Soybean plant response rating,"soybean [13]; Test C, 125 g ai/ha",90
same,"Plant response rating, Ragweed",ragweed [14],80
same,"Plant response rating, Barnyardgrass",barnyardgrass [15]; [26],100
same,Barnyardgrass plant response rating,barnyardgrass [15]; [27],100
same,Kochia plant response rating,kochia [16]; 500 g ai/ha,90
same,Kochia plant response rating,"kochia [16]; Test C, 125 g ai/ha",70
same,"Plant response rating, Galium",galium; [24],100
same,"Plant response rating, Galium",galium; [25],100
same,"Plant response rating, Rice (Flood)",rice,15
same,"Plant response rating, Barnyardgrass (Flood)",barnyardgrass [17],55
same,"Ryegrass, Italian plant response rating","ryegrass, Italian [18]; 500 g ai/ha",100
same,"Ryegrass, Italian plant response rating","ryegrass, Italian [18]; Test C, 125 g ai/ha",80
same,"Plant response rating, Sedge, Umbrella (Flood)","sedge, umbrella",98
same,"Plant response rating, Ryegrass, Italian","ryegrass, Italian [19]",90
same,"Pigweed, Palmer plant response rating","pigweed, palmer [20]; 500 g ai/ha",100
same,"Pigweed, Palmer plant response rating","pigweed, palmer [20]; Test C, 125 g ai/ha",100
same,"Plant response rating, Pigweed, Palmer","pigweed, palmer [21]",80
same,"Plant response rating, Kochia",kochia [22],70
same,"Plant response rating, Blackgrass",blackgrass [23]; [26],90
same,Blackgrass plant response rating,blackgrass [23]; [27],80
